Data as given in article PMC11395333, “The Bifunctional Dimer Caffeine-Indan Attenuates α-Synuclein Misfolding, Neurodegeneration and Behavioral Deficits after Chronic Stimulation of Adenosine A1 Receptors” (International Journal of Molecular Sciences, 2024).

Assays:
[1] = test system: one- and two-copied α-Syn-Green Fluorescent Protein (GFP) yeast strain; parameters: method as in PMID 27673434; details: cited from earlier work
[2] = test system: male Sprague-Dawley rats; assay: Open field test after 7-day chronic i.p. CPA injection; format: in vivo, rat
Description: All animals were housed and treated humanely following the guidelines from the following governing bodies: National Research Council (US) Committee for the Update of the Guide for the Care and Use of Laboratory Animals (Washington DC, USA, 2011); Canadian Council on Animal Care (CCAC); and the University of Saskatchewan Animal Research Ethics Board (AREB), which approved our Animal Use Protocol (#20070090 and #20170079). The animals were housed in cages of two, with access to food pellets and water ad libitum. The four treatments of the Sprague-Dawley rats consisted of the following: 1. Control (0.1% DMSO in 0.9% saline); 2. CPA; 3. […] Drugs were dissolved at 3 mg/mL in DMSO, and each drug was administered to the animals by daily i.p. injections (3 mg/kg or 5 mg/kg body weight) for 7 consecutive days. […] Then, on days 8 and 9 following the final injections, the animals were subjected to several behavioral tests. The open field is a general locomotor test that detects anxiety and willingness to explore. The test is conducted in a white open cube measuring 50 cm in length, 50 cm in width and 35 cm in depth. The bottom field is gridded in 4x4 squares at 12.5 cm, with a center square in the middle of the field. The animal is placed in the center square and is free to explore the entirety of the field for 15 min. […] This trial is then used to calculate the percentage of time the animals spent in the center zone (red square) and the total fecal boli count. A video camera was used to record the animal movement in this test. The open field test was conducted after a 1 h resting period from the time the Y-maze second trial was completed. Each experiment was repeated at least ten times per treatment and the average of each treatment is presented in the bar graphs as average means ± SEM.

[3] = test system: α-Syn; assay: Immunohistochemistry and Thioflavin-S staining of brain slices (α-Syn expression and aggregation); format: in vivo, rat
Description: All animals were housed and treated humanely following the guidelines from the following governing bodies: National Research Council (US) Committee for the Update of the Guide for the Care and Use of Laboratory Animals (Washington DC, USA, 2011); Canadian Council on Animal Care (CCAC); and the University of Saskatchewan Animal Research Ethics Board (AREB), which approved our Animal Use Protocol (#20070090 and #20170079). The animals were housed in cages of two, with access to food pellets and water ad libitum. The four treatments of the Sprague-Dawley rats consisted of the following: 1. Control (0.1% DMSO in 0.9% saline); 2. CPA; 3. […] Drugs were dissolved at 3 mg/mL in DMSO, and each drug was administered to the animals by daily i.p. injections (3 mg/kg or 5 mg/kg body weight) for 7 consecutive days. […] Then, on days 8 and 9 following the final injections, the animals were subjected to several behavioral tests.
Anesthetized rats were transcardially perfused with 0.9% saline, and then fixed with 4% paraformaldehyde. The extracted brains were put in 30% cryoprotected sucrose solution for 48 h prior to slicing. The brains were initially frozen at −40 °C (BFS-30 mp controllers) and sliced with the help of a microtome (Leica SM2010 R Sliding controller). Coronal slices of 40 μm were then washed three times in 0.1 M phosphate-buffered saline followed by 1 h blocking at room temperature with blocking buffer. The buffer solution components have been previously described. The slices were then incubated overnight at 4 °C with the following primary antibodies: 1:200 mouse monoclonal to α-synuclein (Abcam Inc, Toronto, ON, Canada; Cat# ab280377) and 1:200 rabbit polyclonal to tyrosine hydroxylase (TH) (Millipore-Sigma, Oakville, ON, Canada; Cat# AB152). Subsequently, slices were then incubated for 1 h in the dark at room temperature with the following secondary antibodies (1:1000): AlexaFluor-555-conjugated anti-mouse (Cat# A-21127) and AlexaFluor-647-conjugated anti-rabbit (Cat# A-21244) purchased from Invitrogen (Thermo Fisher Scientific, Waltham, MA, USA). Slices were then treated with Thioflavin-S (see further details below). Lastly, the slices were incubated for 5 min at room temperature with DAPI (2 mg/mL) from Invitrogen (Thermo Fisher Scientific; Cat# R37606) and images were taken using a Zeiss LSM700 confocal microscope (Carl Zeiss Group, Toronto, ON, Canada) and analyzed with ImageJ (Open-Source Public Domain software, United States National Institute of Health (US NIH), Bethesda, MD, USA). Images of the hippocampal CA1 pyramidal layer and the SN pars compacta were obtained using the Zeiss Plan-Apochromat 63X/1.4 oil objective lens (Carl Zeiss Group, Toronto, ON, Canada). Images were acquired as Z-stack images of hippocampal or SN regions with 12–13 Z-stack images taken at 1 µm intervals near the middles of brain slices. Two Z-stack images were taken along the hippocampal CA1 or SN pars compacta region for each slice, and immunofluorescence signals were averaged using densitometry analysis.
Thioflavin-S (Thio-S) is a fluorescent marker (Sigma-Aldrich, Oakville, ON, Canada; Cat# T1892-25G) that detects α-Syn aggregates and amyloid plaques. Coronal slices of 40 μm were firstly treated with 0.3% KMnO4 for 4 min, followed by a 30 min incubation with 1 M phosphate buffered saline at 4 °C. These slices were then stained with 0.05% Thioflavin-S in 50% ethanol in the dark for 8 min, rinsed with 80% ethanol twice, followed by three rinses with ultra-pure water for 30 s. Finally, the slices were incubated again with 1 M phosphate buffered saline for 30 min at 4 °C before starting the DAPI stain. The FITC filter (488 nm laser line) was used to image Thioflavin-S using a Zeiss LSM700 confocal microscope (Carl Zeiss Group, Canada) and images were analyzed with ImageJ (Public Domain).

[4] = test system: α-Syn; parameters: method as in PMID 27673434; details: isothermal titration calorimetry; cited from earlier work
[5] = CPA 3 mg/kg i.p. daily for 7 days, alone

| SMILES | Rescue from α-Syn-induced cell death ([1]; galactose promoter) | Prevention of large α-Syn foci ([1]; one- and two-copied α-Syn-GFP yeast) | Open field, fecal boli count ([2]; 3 and 5 mg/kg i.p. with 3 mg/kg CPA, 7 days) | Open field, exploratory behavior and anxiety ([2]; co-administered with 3 mg/kg CPA, 7 days) | Thio-S levels in CA1 hippocampus ([3]; 3 mg/kg + CPA) | Thio-S levels in SNc ([3]; 3 mg/kg + CPA, compared to control) | Thio-S levels in SNc ([3]; 5 mg/kg + CPA) | Thio-S levels in hippocampus ([3]; 5 mg/kg + CPA) | α-Syn levels in SNc and CA1 hippocampal region ([3]; co-treatment with 3 mg/kg CPA, 7 days) | Binding constant with α-Syn [4] | Number of binding sites with α-Syn [4] | Open field, percentage of time spent in the center square [2, 5] | α-Syn levels in SNc and CA1 hippocampal region [3, 5] | Thio-S levels in SNc ([3]; CPA 3 mg/kg i.p. daily for 7 days, alone, compared to control) |
| --- | --- | --- | --- | --- | --- | --- | --- | --- | --- | --- | --- | --- | --- | --- |
| Cn1c(=O)c2c(nc(CCCCCCNC3CCc4ccccc43)n2C)n(C)c1=O (centres unmarked) [C8–6–I] | successful in rescuing the one- and two-copied α-Syn-Green Fluorescent Protein (GFP) yeast strain from α-Syn-induced cell death | effective in preventing large α-Syn foci | significantly decreased the fecal boli count | improved the exploratory behavior and reduced the anxiety caused by CPA | abolished the CPA-induced Thio-S levels | significant increase in Thio-S levels | reached control levels | moderate but significant Thio-S level increase | prevented this α-Syn upregulation | 53000 M⁻¹ | one binding site |  |  |  |
| OC[C@H]1O[C@@H](n2cnc3c(NC4CCCC4)ncnc32)[C@H](O)[C@@H]1O [CPA, N^6-Cyclopentyladenosine, reference compound] |  |  |  |  |  |  |  |  |  |  |  | significantly lower percentage of time spent in the center square | markedly increased | significant increase in Thio-S levels |
